How the values were obtained:
[1] = Determination of particle size and polydispersity index (PDI) of lipid nanoparticles by dynamic light scattering; format: physicochemical; details: LNP formulation of named cationic lipid/DSPC/cholesterol/DMG-PEG2000 49:10:39.5:1.5; for Particle size (nm): 90° scattering angle, 25° C
Method: The cationic lipids listed in Table 1 were dissolved in ethanol with DSPC (AVT (Shanghai) Pharmaceutical Technology Co., Ltd.), cholesterol (AVT (Shanghai) Pharmaceutical Technology Co., Ltd.) and DMG-PEG2000 according to a molar ratio of 49:10:39.5:1.5, respectively, to prepare lipid solution in ethanol. The lipid solution in ethanol was quickly added to citrate buffer (pH=4 to 5) by ethanol injection method, and vortexed for 30 s for later use. eGFP-mRNA (from Shanghai Biohub International Trade Co., Ltd) or Fluc-mRNA (from Shanghai Biohub International Trade Co., Ltd) was diluted in citrate buffer (pH=4 to 5) to give an aqueous mRNA solution. A certain volume of liposome solution and mRNA aqueous solution were used to prepare liposomes at a weight ratio of total lipids to mRNA of 15:1. The mixtures were sonicated at 25° C. for 15 min (with an ultrasonic frequency of 40 kHz and an ultrasonic power of 800 W). The resulting liposomes were diluted to 10 times volume with PBS, and then ultrafiltered with a 300 KDa ultrafiltration tube to remove ethanol. Then the volume was fixed to a certain volume with PBS to give an LNP formulation encapsulating eGFP-mRNA or Fluc-mRNA using cationic lipid/DSPC/cholesterol/DMG-PEG2000 (49:10:39.5:1.5 in molar percentage).
The particle size and polydispersity index (PDI) were determined by dynamic light scattering using Malvern laser particle size analyzer.
10 μL of the liposome solution was weighed, diluted to 1 mL with RNase-free deionized water, and added to the sample pool. Each sample was measured in triplicate. The measurement conditions were: 90° scattering angle, and 25° C.

293T cells [2] = experiment: Fluorescent detection of Fluc-mRNA (cell transfection efficiency of LNP formulations); format: cell-based; details: for Relative light unit (RLU): LNP formulation containing 0.3 μg Fluc-mRNA, 96-well plate, 24 hours; for Multiples (YK-101): RLU of YK-101 / RLU of named substance; for Multiples (YK-107): RLU of YK-107 / RLU of named substance; for Multiples (YK-108): RLU of YK-108 / RLU of named substance; for Ratio relative to SM-102: RLU of named substance / RLU of SM-102; for fluorescence absorption value, times that of HHMA: RLU of named substance / RLU of HHMA; for fluorescence absorption value, times that of Lipofectamine 3000: RLU of named substance / RLU of Lipofectamine 3000; for Fluc-mRNA expression signal intensity, times that of compound 21: RLU of named substance / RLU of compound 21; for fluorescence absorption value, times that of compound 23: RLU of named substance / RLU of compound 23; for difference from SM-102 in Fluc-mRNA fluorescence (GraphPad Prism analysis): statistical comparison with SM-102
Summary of the method: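 293T cells seeded at 10,000 per well, cultured overnight, then given LNP carrying 0.3 μg Fluc-mRNA (cationic:neutral:structured:PEG-lipid 49:10:39.5:1.5 molar). Incubated 24 h. Luciferase signal read with kit reagent on an IVIS imaging system.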

293T cells [3] = experiment: Cell survival rate determination (CCK-8); format: cell-based; details: for Cell survival rate (%): LNP formulation containing 1.5 μg Fluc-mRNA, 24 hours, CCK-8, absorbance at 450 nm; for cell survival rate lower than that of YK-101: cell survival rate of YK-101 minus that of named substance; for cell survival rate lower than that of YK-107: cell survival rate of YK-107 minus that of named substance; for cell survival rate lower than that of YK-108: cell survival rate of YK-108 minus that of named substance
Summary of the method: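 293T cells were seeded overnight at 10,000 cells/well in 96-well plates, then exposed for 24 h to LNP containing 1.5 μg Fluc-mRNA (cationic:neutral:structural:polymer-conjugated lipid, 49:10:39.5:1.5 molar) or to Lipofectamine 3000. Viability was read by CCK-8, 1 h incubation, absorbance 450 nm.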

BALB/C mice = experiment: In vivo imaging of Fluc-mRNA expression in mice delivered by LNP formulations
Summary of the method: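 Female BALB/C mice (4-6 weeks, 17-19 g) received LNP carrying […] Fluc-mRNA intramuscularly. Substrate was given intraperitoneally at 6 h, 24 h, 48 h and 7 d, and average radiance was imaged by IVIS 5 min later.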

PDI(%) [1] | Particle size (nm) [1] | SMILES | Relative light unit (RLU) (293T cells [2]) | Multiples (YK-101) (293T cells [2]) | Multiples (YK-107) (293T cells [2]) | Multiples (YK-108) (293T cells [2]) | Ratio relative to SM-102 (293T cells [2]) | Cell survival rate (%) (293T cells [3]) | cell survival rate lower than that of YK-101 (293T cells [3]) | cell survival rate lower than that of YK-107 (293T cells [3]) | cell survival rate lower than that of YK-108 (293T cells [3]) | fluorescence absorption value, times that of HHMA (293T cells [2]) | fluorescence absorption value, times that of Lipofectamine 3000 (293T cells [2]) | Fluc-mRNA expression signal intensity, times that of compound 21 (293T cells [2]) | fluorescence absorption value, times that of compound 23 (293T cells [2]) | difference from SM-102 in Fluc-mRNA fluorescence (GraphPad Prism analysis) (293T cells [2]) | further results
7.7% | 205 nm | CCCCCCCCCCOC(=O)CCCN(CCCCCC(=O)OCC(CCCCCCCC)CCCCCCCC)CCOCCOCCO [YK-122, 2-octyldecyl 6-(4-(decyloxy)-4-oxobutyl)(2-(2-(2-hydroxyethoxy)ethoxy-ethyl)amino)hexanoate] | 1418705 RLU | 14.33 | 15.76 | 17.38 | 0.92 | 79.15% | 10.97% | 11.30% | 10.71% | 0.69 times | 1.32 times | 1.02 times | 1.10 times | no significant difference | cell transfection efficiency, times that of YK-121 (293T cells [2]): 3.3 times
21.8% | 167 nm | CCCCCCCCCCOC(=O)CCCN(CCCCCC(=O)OCCC(CCCCCC)CCCCCC)C[C@@H](O)CO [YK-115] | 1427501 RLU | 14.25 | 15.66 | 17.28 | 0.93 | 59.07% | 31.05% | 31.38% | 30.79% | 0.70 times | 1.33 times | 1.03 times | 1.11 times |  | 

Further lines, the compound ahead of its results:

SMILES | PDI(%) [1] | Particle size (nm) [1] | Relative light unit (RLU) (293T cells [2]) | Multiples (YK-101) (293T cells [2]) | Multiples (YK-107) (293T cells [2]) | Multiples (YK-108) (293T cells [2]) | Ratio relative to SM-102 (293T cells [2]) | Cell survival rate (%) (293T cells [3]) | cell survival rate lower than that of YK-101 (293T cells [3]) | cell survival rate lower than that of YK-107 (293T cells [3]) | cell survival rate lower than that of YK-108 (293T cells [3]) | fluorescence absorption value, times that of HHMA (293T cells [2]) | fluorescence absorption value, times that of Lipofectamine 3000 (293T cells [2]) | Fluc-mRNA expression signal intensity, times that of compound 21 (293T cells [2]) | fluorescence absorption value, times that of compound 23 (293T cells [2]) | difference from SM-102 in Fluc-mRNA fluorescence (GraphPad Prism analysis) (293T cells [2]) | further results
CCCCCCCCC(CCCCCCCC)OC(=O)CCCCCCCN(CCO)CCCCCCCC(=O)OCCC(CCCCCC)CCCCCC [Compound 21, 9-heptadecyl 8-(8-((3-hexylnonyl)oxy)-8-oxoctyl)-((2-hydroxyethyl)amino)octoate, reference compound] | 12.5% | 151 nm | 1389141 RLU | 14.64 | 16.10 | 17.75 | 0.91 | 68.53% | 21.59% | 21.92% | 21.33% |  |  |  |  |  | average radiation intensity of YK-101, times that of named substance (BALB/C mice; 6 h): 2.5 times; average radiation intensity of YK-107, times that of named substance (BALB/C mice; 6 h): 2.6 times; average radiation intensity of YK-108, times that of named substance (BALB/C mice; 6 h): 3.3 times; average radiation intensity of YK-101, times that of named substance (BALB/C mice; 24 h): 9.6 times; average radiation intensity of YK-107, times that of named substance (BALB/C mice; 24 h): 11.8 times; average radiation intensity of YK-108, times that of named substance (BALB/C mice; 24 h): 12.8 times; average radiation intensity of YK-101, times that of named substance (BALB/C mice; 48 h): 6.0 times; average radiation intensity of YK-107, times that of named substance (BALB/C mice; 48 h): 7.3 times; average radiation intensity of YK-108, times that of named substance (BALB/C mice; 48 h): 7.4 times; average radiation intensity of YK-101, times that of named substance (BALB/C mice; 7 d): 2.0 times; average radiation intensity of YK-107, times that of named substance (BALB/C mice; 7 d): 2.2 times; average radiation intensity of YK-108, times that of named substance (BALB/C mice; 7 d): 2.4 times; average radiation intensity, 6 h (BALB/C mice; LNP containing 10 pg Fluc-mRNA, intramuscular, female BALB/C mice, 6 h): 606680; average radiation intensity, 24 h (BALB/C mice; LNP containing 10 pg Fluc-mRNA, intramuscular, female BALB/C mice, 24 h): 110210; average radiation intensity, 48 h (BALB/C mice; LNP containing 10 pg Fluc-mRNA, intramuscular, female BALB/C mice, 48 h): 31062; average radiation intensity, 7 d (BALB/C mice; LNP containing 10 pg Fluc-mRNA, intramuscular, female BALB/C mice, 7 d): 6024
CCCCCCCCCCOC(=O)CCCN(CCO)CCCCCCOC(=O)CC(CCCCCC)CCCCCC [YK-105] | 18.6% | 109 nm | 1593805 RLU | 12.76 | 14.03 | 15.47 | 1.04 | 78.58% | 11.54% | 11.87% | 11.28% |  |  |  |  | no significant difference | 
CCCCCCCCCCOC(=O)CCCCCN(CCO)CCCCCC(=O)OCCC(CCCCCC)CCCCCC [YK-103, 3-hexylnonyl-6-((6-(decyloxy)-6-oxohexyl)(2-hydroxyethyl)amino)hexanoate] | 21.5% | 179 nm | 2312883 RLU | 8.79 | 9.67 | 10.66 | 1.51 | 45.25% | 44.87% | 45.20% | 44.61% |  |  |  |  | no significant difference | cell transfection activity, times that of YK-109 (293T cells [2]): 3.2 times
